Reference: patent EP4700021A1, “NOVEL COMPOUND AND PHARMACEUTICAL COMPOSITION COMPRISING SAME AS ACTIVE INGREDIENT” (Sapiensbio Inc., priority 2023, dated 2025)
Counter-ions that a name gives are not always drawn.

Legend:
α-SMA = test: in vitro α-SMA expression inhibition (immunostaining, confocal microscopy) in TGF-β1-treated MRC-5 cells; format: cell-based, human; conditions: TGF-β1 (5 ng/mL), 72 hours, standardized using GAPDH
Description: When scars are generated in tissue, fibroblasts undergo fibroblast-to-myofibroblast transition (FMT), and the resulting myofibroblasts produce the extracellular matrix, leading to tissue fibrosis. α-SMA is a representative biomarker of myofibroblasts, and its expression greatly increases as FMT progresses. Accordingly, through the evaluation of α-SMA expression inhibitory activity, the efficacy of the compounds in inhibiting fibrosis may be evaluated. Therefore, the inhibitory activity of the compounds of the present invention on α-SMA expression was evaluated in cells. To more accurately evaluate the inhibition of α-SMA expression, IC50 values were determined by treating human lung-derived fibroblasts (MRC-5 cells) with the compounds of the present invention in a concentration-dependent manner.
Specifically, 2 hours after the MRC-5 cells were treated with DMSO or compounds dissolved in serum containing 0.5% fetal bovine serum (FBS) in a concentration-dependent manner, fibrosis was induced by treatment with TGF-β1 (5 ng/mL). After 72 hours, the cells were immobilized with a 2% paraformaldehyde solution for 10 minutes, and to impart cell membrane permeability, a 0.1% Triton X-100 solution was treated for 10 minutes, and a 1% bovine serum albumin (BSA) solution was treated to prevent non-specific binding. For immunostaining, anti-GAPDH (BIO-RAD) was first treated as a primary antibody, and Alexa Fluor™ Plus 555 for GAPDH labeling was used as a secondary antibody. For α-SMA staining, an FITC fluorescence-tagged α-SMA primary antibody was used, and thus the increase and decrease in α-SMA caused by the compounds were evaluated. The immunohistochemical experimental results were confirmed with a STELLARIS 5 confocal microscope (Leica), and FITC-stained α-SMA was standardized using GAPDH labeled with Alexa FluorTM Plus 555 for quantification. The IC50 of the compounds according to the present invention was calculated through statistical analysis (linear mixed effects model). […]

ACTA2 mRNA [1] = test: qRT-PCR of ACTA2 mRNA in TGF-β1-treated human renal fibroblasts; format: cell-based; conditions: human renal fibroblasts (HRFs); 10 and 50 µM; TGF-β1 (5 ng/mL); 48 hours; FIG. 3
Protocol: (§1) Here, to confirm the degree of fibrosis, ACTA2 or COL1A1 mRNA, which can express α-SMA or collagen type 1, was used as an indicator. α-SMA is a marker for activated myofibroblasts, which are the main effector cells of fibrosis, and myofibroblasts with increased α-SMA expression are known to cause fibrosis by producing a fibrotic protein such as collagen type 1.
(§2) Specifically, human renal fibroblasts (HRFs) were seeded, and cultured for 24 hours under a nutrient-deficient condition for effective cell activation. Afterward, the cells were treated with the compounds (Compounds 51 and 41) according to the present invention, together with TGF-β1 (5 ng/mL) to induce fibrosis, at 10 and 50 µM for 48 hours, respectively, and then cultured to extract RNA therefrom. The RNA was used to perform qRT-PCR. From the experimental results, the mRNA expression levels of ACTA2 and COL1A1 were confirmed, thereby verifying the therapeutic effects of the compounds.

F-actin = test: inhibition of F-actin formation (rhodamine phalloidin staining) in TGF-β1-treated MRC-5 cells; format: cell-based, human; conditions: compound 10 µM, TGF-β1 (5 ng/mL), 72 hours, FIG. 1
Protocol: In this experimental example, 2 hours after human lung-derived fibroblasts (MRC-5 cells) were treated with Compound 41 (10 µM) or Compound 51 (10 µM) according to the present invention, or DMSO, dissolved in 0.5% FBS-containing serum, TGF-β1 (5 ng/mL) was treated to induce fibrosis. After 72 hours, the cells were immobilized with a 2% paraformaldehyde solution for 10 minutes, and to impart cell membrane permeability, a 0.1% Triton X-100 solution was treated for 10 minutes, and a 1% bovine serum albumin (BSA) solution was treated to prevent non-specific binding. For immunostaining, anti-GAPDH (BIO-RAD) was first treated as a primary antibody, and Alexa Fluor™ Plus 488 for GAPDH labeling was used as a secondary antibody. For staining of an actin cytoskeleton, particularly, F-actin, rhodamine phalloidin (Cytoskeleton) was used to confirm the increase and decrease in F-actin caused by the compounds. The immunohistochemical experimental results were confirmed with a STELLARIS 5 confocal microscope (Leica), F-actin stained with rhodamine phalloidin was standardized with GAPDH labeled with Alexa Fluor™ Plus 488 for quantification.

ACTA2 mRNA [2] = test: qRT-PCR of ACTA2 mRNA in TGF-β1-treated human hepatic stellate cells; format: cell-based; conditions: human hepatic stellate cells (HHSCs); 10 and 50 µM; TGF-β1 (5 ng/mL); 48 hours; FIG. 2
Protocol: as §1, with “mRNA that” for “mRNA, which”, “1” for “1,”, “of” for “for”, “COL1A1.” for “collagen type 1.”
as §2, with “hepatic stellate cells (HHSCs)” for “renal fibroblasts (HRFs)”

COL1A1 mRNA = test: qRT-PCR of COL1A1 mRNA in TGF-β1-treated human renal fibroblasts; format: cell-based; conditions: human renal fibroblasts (HRFs); 10 and 50 µM; TGF-β1 (5 ng/mL); 48 hours; FIG. 3
Protocol: as §1, §2

With `N[C@H]1CCN(C(=O)N2CCN(Cc3ccc(F)cc3)c3ccccc32)C1.O=C(O)/C=C/C(=O)O` [Compound 41, (S)-(3-aminopyrrolidin-1-yl)(4-(4-fluorobenzyl)-3,4-dihydroquinoxaline-1(2H)-yl)methanone fumaric acid salt] the IC50 (α-SMA; Homo sapiens) was < 1 µM, the “ACTA2 mRNA expression” value (ACTA2 mRNA [1]) was “effectively inhibit the mRNA expression” and the “intracellular F-actin formation” value (F-actin) was “reduced to a level similar to that of the group not treated with TGF-β1”. The “ACTA2 mRNA expression” value (ACTA2 mRNA [2]) was “effectively inhibit the mRNA expression” and the “COL1A1 mRNA expression” value (COL1A1 mRNA) was “effectively inhibit the mRNA expression”.

For `CC(C)CN[C@H]1CCN(C(=O)N2CCN(Cc3ccccn3)c3ccccc32)C1.O=C(O)/C=C/C(=O)O` [Compound 51, (S)-(3-(isobutylamino)pyrrolidin-1-yl)(4-(pyridin-2-ylmethyl)-3,4-dihydroquinoxaline-1(2H)-yl)methanone fumaric acid salt], the IC50 (α-SMA; Homo sapiens) was < 1 µM, the “ACTA2 mRNA expression” value (ACTA2 mRNA [1]) was “effectively inhibit the mRNA expression” and the “intracellular F-actin formation” value (F-actin) was “reduced to a level similar to that of the group not treated with TGF-β1”. For the same compound, the “ACTA2 mRNA expression” value (ACTA2 mRNA [2]) was “effectively inhibit the mRNA expression” and the “COL1A1 mRNA expression” value (COL1A1 mRNA) was “effectively inhibit the mRNA expression”.

For `O=C(NC1COC1)N1CCN(Cc2ccccn2)c2ccccc21` [Compound 54, N-(oxetan-3-yl)-4-(pyridin-2-ylmethyl)-3,4-dihydroquinoxaline-1(2H)-carboxamide], the IC50 (α-SMA; Homo sapiens) was < 1 µM.

`CC1(NC(=O)N2CCN(Cc3ccccn3)c3ccccc32)COC1` [Compound 55, N-(3-Methyloxetan-3-yl)-4-(pyridin-2-ylmethyl)-3,4-dihydroquinoxaline-1(2H)-carboxamide] was tested, and the IC50 (α-SMA; Homo sapiens) was < 1 µM.

`O=C(NCC1COC1)N1CCN(Cc2ccccn2)c2ccccc21` [Compound 56, N-(oxetan-3-ylmethyl)-4-(pyridin-2-ylmethyl)-3,4-dihydroquinoxaline-1(2H)-carboxamide] gave an IC50 (α-SMA; Homo sapiens) of 10 to 30 µM.

In the case of `CC1(CNC(=O)N2CCN(Cc3ccccn3)c3ccccc32)COC1` [Compound 57, N-((3-methyloxetan-3-yl)methyl)-4-(pyridin-2-ylmethyl)-3,4-dihydroquinoxaline-1(2H)-carboxamide], the IC50 (α-SMA; Homo sapiens) is reported as ≤ 30 µM.

In the case of `O=C(NCC1CCOC1)N1CCN(Cc2ccccn2)c2ccccc21` (centres unmarked) [Compound 58, 4-(pyridin-2-ylmethyl)-N-((tetrahydrofuran-3-yl)methyl)-3,4-dihydroquinoxaline-1(2H)-carboxamide], the IC50 (α-SMA; Homo sapiens) is reported as < 1 µM.

In the case of `O=C(NC[C@@H]1CCOC1)N1CCN(Cc2ccccn2)c2ccccc21` [Compound 59, (S)-4-(pyridin-2-ylmethyl)-N-((tetrahydrofuran-3-yl)methyl)-3,4-dihydroquinoxaline-1(2H)-carboxamide], the IC50 (α-SMA; Homo sapiens) is reported as < 1 µM.

`O=C(NC[C@H]1CCOC1)N1CCN(Cc2ccccn2)c2ccccc21` [Compound 60, (R)-4-(pyridin-2-ylmethyl)-N-((tetrahydrofuran-3-yl)methyl)-3,4-dihydroquinoxaline-1(2H)-carboxamide] gave an IC50 (α-SMA; Homo sapiens) of 10 to 30 µM.

`CN1CC[C@@H](COC(=O)N2CCN(Cc3ccccn3)c3ccccc32)C1` [Compound 64, (R)-(1-methylpyrrolidin-3-yl)methyl-4-(pyridin-2-ylmethyl)-3,4-dihydroquinoxaline-1(2H)-carboxylate] was tested, and the IC50 (α-SMA; Homo sapiens) was < 1 µM.

With `CN1CCC(COC(=O)N2CCN(Cc3ccccn3)c3ccccc32)CC1` [Compound 65, (1-methylpiperidin-4-yl)methyl-4-(pyridin-2-ylmethyl)-3,4-dihydroquinoxaline-1(2H)-carboxylate] the IC50 (α-SMA; Homo sapiens) was 10 to 30 µM.

`O=C(NCC1CCNCC1)N1CCN(Cc2ccc(F)cn2)c2ccccc21` [Compound 66, 4-((5-fluoropyridine-2-yl)methyl)-N-(piperidin-4-ylmethyl)-3,4-dihydroquinoxaline-1(2H)-carboxamide oxalic acid salt] was tested, and the IC50 (α-SMA; Homo sapiens) was < 1 µM.

For `CN1CCC(CNC(=O)N2CCN(Cc3ccc(F)cn3)c3ccccc32)CC1` [Compound 67, 4-((5-fluoropyridin-2-yl)methyl)-N-((1-methylpiperidin-4-yl)methyl)-3,4-dihydroquinoxaline-1(2H)-carboxamide], the IC50 (α-SMA; Homo sapiens) was ≤ 30 µM.

For `O=C(NCC1CCNCC1)N1CCN(Cc2ncccc2F)c2ccccc21` [Compound 68, 4-((3-fluoropyridin-2-yl)methyl)-N-(piperidin-4-ylmethyl)-3,4-dihydroquinoxaline-1(2H)-carboxamide], the IC50 (α-SMA; Homo sapiens) was ≤ 30 µM.

Work on `CN1CCC(CNC(=O)N2CCN(Cc3ncccc3F)c3ccccc32)CC1` [Compound 69, 4-((3-fluoropyridin-2-yl)methyl)-N-((1-methylpiperidin-4-yl)methyl)-3,4-dihydroquinoxaline-1(2H)-carboxamide] yielded an IC50 (α-SMA; Homo sapiens) of 1 to 10 µM.

`CN1CCN(C(=O)N2CCN(C3CCCCC3)c3ccccc32)CC1` [Compound 70, (4-cyclohexyl-3,4-dihydroquinoxaline-1(2H)-yl)(4-methylpiperazin-1-yl)methanone] gave an IC50 (α-SMA; Homo sapiens) of 1 to 10 µM.

For `O=C(N1CCCCC1)N1CCN(C2CCCCC2)c2ccccc21` [Compound 71], the IC50 (α-SMA; Homo sapiens) was 1 to 10 µM.

In the case of `CC(C)CC(=O)N1CCN(C(=O)NCC2CCNCC2)c2ccccc21` [Compound 77, 4-(3-Methylbutanoyl)-N-(piperidin-4-ylmethyl)-3,4-dihydroquinoxaline-1(2H)-carboxamide], the IC50 (α-SMA; Homo sapiens) is reported as ≤ 30 µM.

For `CC(C)(C)CC(=O)N1CCN(C(=O)N2CCNCC2)c2ccccc21` [Compound 78, 3,3-dimethyl-1-(4-(piperazine-1-carbonyl)-3,4-dihydroquinoxaline-1(2H)-yl)butan-1-one], the IC50 (α-SMA; Homo sapiens) was ≤ 30 µM.

With `CC(C)(C)CC(=O)N1CCN(C(=O)NCC2CCNCC2)c2ccccc21` [Compound 79, 4-(3,3-dimethylbutanoyl)-N-(piperidin-4-ylmethyl)-3,4-dihydroquinoxaline-1(2H)-carboxamide] the IC50 (α-SMA; Homo sapiens) was ≤ 30 µM.

With “(S)-N-(1-isobutylpyrrolidin-3-yl)-4-(pyrazin-2-ylmethyl)-3,4-dihydroquinoxaline-1(2H)-carboxamide [Compound 44]” the IC50 (α-SMA) was ≤ 30 µM.
